Our source for the GI50 and TGI values is PubChem BioAssay (NCI).

Experiment in all cases: NCI tumour cell line growth inhibition, 48 h
The test system of assay [1] is UO-31 renal.
Assay [2] has as its system IGROV1 ovarian.
In assay [3] the test system is BT-549 breast.
Assay [4] concerns UACC-257 melanoma.
Assay [5] deals with HOP-92 NSCLC.
The test system of assay [6] is HCC-2998 colon.
For assay [7], the system named is SN12C renal.
Assay [8] concerns NCI-H226 lung.
The subject of assay [9] is SF-268 CNS.
Assay [10] relates to SNB-75 CNS.

SMILES strings stand for the structures.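 Dose response: 5 concentrations. Exposure: 48 h. Format: 96-well plates. Endpoint: linear interpolation; highest concentration if not reached. Here, GI50 denotes the concentration required for 50% inhibition of growth. TGI marks complete inhibition of growth.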

Turning to `NS(=O)(=O)c1ccc(-n2nc3c(c2-c2cccs2)Cc2ccccc2-3)cc1`, the GI50 is 12.2 µM in assay [1]; 2.49 µM in assay [2]; 12.4 µM in assay [3]; 23.2 µM in assay [4]; 5.56 µM in [5]; 12.8 µM in assay [6]. The GI50 is 12.2 µM in assay [7], 4.9 µM in [8], > 100 µM in assay [9] and 25.5 µM in assay [10]. Moreover, the TGI was 24.6 µM in assay [1]; 15.5 µM in assay [2]; 26.3 µM in assay [3]; 44.2 µM in assay [4]; 22.7 µM in assay [5]; 25.4 µM in [6]. In addition, the TGI in [7] is 25 µM; in assay [8], 26.2 µM; in assay [9], > 100 µM; in [10] it was 83.1 µM.
For `Oc1c(C(Nc2ccccn2)c2ccccc2)ccc2cccnc12` (stereo not given), the TGI in assay [1] was 41.4 µM; in assay [2] it was 16.3 µM; in assay [3], > 93.4 µM; in assay [4], > 100 µM; in [5] it was 9.97 µM; in assay [6] it was > 100 µM. The TGI was 17.4 µM in assay [7], 7.54 µM in assay [8], 25.3 µM in assay [9] and > 60.9 µM in assay [10].
For `Cc1cc(N(CCC#N)S(=O)(=O)c2ccccc2)ccc1C=Nc1ccc(C(=O)O)cc1`, the TGI in [1] was 21.8 µM; in [2], 46.5 µM; in [3], > 100 µM; in assay [4], 30 µM; in [5], > 100 µM; in [6] it was 27.5 µM. Besides, the TGI in [7] is 16.8 µM; in assay [8], 40.7 µM; in assay [9] it was > 60.7 µM; in assay [10] it was 29.1 µM.
In the case of `CC(NNC(=S)N1CCN(c2ccccn2)CC1)c1nccc2ccccc12` (stereo not given), the TGI came out at 8.34 µM in assay [1]; 18.5 µM in [2]; 22.6 µM in [3]; 12.9 µM in [4]; 7.79 µM in [5]; 14.7 µM in assay [6]. Further, the TGI amounted to 11.3 µM in assay [7], 8.11 µM in assay [8], 14.5 µM in assay [9] and 18.9 µM in assay [10].
As for `COc1nn(C)cc1Nc1nccc(-c2c[nH]c3c(NC(=O)[C@@H](C)N4CCN(C)CC4)cccc23)n1`, the GI50 in assay [1] was 20.7 µM; in [2], 18.9 µM; in assay [3] it was 22.5 µM; in assay [4] it was 27.7 µM; in assay [5] it was 41.7 µM; in assay [6], > 100 µM. The GI50 was 38.3 µM in assay [7], 14.3 µM in assay [8], 36 µM in assay [9] and 16.2 µM in [10]. The TGI in assay [1] was > 100 µM; in assay [2], > 100 µM; in assay [3] it was 72.9 µM; in assay [4], 78.7 µM; in assay [5], > 100 µM; in assay [6], > 100 µM. Also, the TGI in assay [7] was > 100 µM; in [8] it was > 100 µM; in assay [9] it was > 100 µM; in [10], 40.9 µM.
Take `O=[N+]([O-])c1c(O)c2nonc2c2nn(-c3ccccc3)nc12`: the TGI in [1], in assay [2], in [3], in assay [4], in assay [5] and in [6] was > 100 µM in each case. For the same compound, the TGI in assay [7] was > 100 µM; in assay [8] it was 79.1 µM; in [9], > 100 µM; in assay [10] it was > 100 µM.
In the case of `c1ccc2c(N=NSc3ncnc4nc[nH]c34)c3ccccc3nc2c1`, the GI50 is 1.09 µM in [1]; 2.73 µM in assay [2]; 2.76 µM in [3]; 0.662 µM in assay [4]; 1.79 µM in assay [5]; 1.49 µM in [6]. In addition, the GI50 in assay [7] was 0.811 µM; in assay [8], 0.641 µM; in [9], 1.8 µM; in assay [10], 1.35 µM. Moreover, the TGI in assay [1] is 3.99 µM; in [2] it was 8.6 µM; in [3], 8.7 µM; in assay [4], 6.56 µM; in [5], 4.77 µM; in assay [6], 3.77 µM. The TGI was 12.8 µM in assay [7], 2.31 µM in assay [8], 6.53 µM in [9] and 2.95 µM in assay [10].
For the compound `O=C(O)c1cc(NCc2cc(O)ccc2O)ccc1O`, the TGI in assay [1], in assay [2], in assay [3], in assay [4], in [5] and in [6] was > 100 µM each time. Further, the TGI in assay [7], in assay [8], in assay [9] and in assay [10] was > 100 µM each time.
For `CN1C(=O)N(C)C2C1NC(=S)N2/N=C/C=C/c1ccccc1[N+](=O)[O-]` (stereo not given), the GI50 in [1] is 3.86 µM; in [2], 2.48 µM; in assay [3], 3.34 µM; in assay [4], > 100 µM; in assay [5] it was 57.7 µM; in assay [6], 2.56 µM. Besides, the GI50 in [7] was 6.82 µM; in assay [8], 17.5 µM; in assay [9], 2.67 µM; in assay [10] it was 0.319 µM. The TGI in assay [1], in [2], in assay [3], in [4], in assay [5] and in [6] was > 100 µM in each case. Also, the TGI in [7], in assay [8], in assay [9] and in assay [10] was > 100 µM in each case.
